This note sets out measurements from US20020183256A1, “Cytostatic-integrin conjugates having specifically cleavable linking units” (priority 2000, published 2002).

Series [1] concerns SW 480. Put plainly: Growth inhibition test (MTT), cytotoxic action on tumour cell lines. Format: cell-based, human. The method in brief: (§1)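 Cells seeded at 50,000/ml (B16F10 20,000/ml) in RPMI + 10% FCS, grown 1 day at 37 °C, then compound added in DMSO. Growth read on day 6 by MTT (5 h, 37 °C), isopropanol solubilisation, extinction at 595 nm; IC50 reported per line.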
The subject of series [2] is HT29. The description is as above. It counts as cell-based, human. The method in brief:
as §1

Series [3] is described as follows: In-vivo inhibition of tumour growth using a nude mouse model. Details: species or system athymic nude mice (NMRI nu/nu strain). The conditions noted are these: NMRI nu/nu, mouse, in vivo; intravenously or intraperitoneally day 1-3 and day 15-17; nude mice; read-out: MTD (dose marked MTD). The source says:
(§2) In all in-vivo experiments for investigating the inhibition of tumour growth, athymic nude mice (NMRI nu/nu strain) were used. The tumour was developed by serial passage in nude mice. The human origin of the tumour was confirmed by isoenzymatic and immunohistochemical methods.
(§3) The tumour was implanted subcutaneously in both flanks of nu/nu nude mice 6 to 8 weeks old. The treatment was started, depending on the doubling time, as soon as the tumours had reached a diameter of 5-7 mm. The mice were assigned to the treatment group or the control group (5 mice per group having 8-10 assessable tumours) by randomization. The individual tumours of the control group all grew progressively.
(§4) The size of the tumours was measured in two dimensions by means of a slide gauge. The tumour volume, which correlated well with the cell count, was then used for all assessments. The volume was calculated according to the formula “length×breadth×breadth/2” ([a×b^2]/2, a and b represent two diameters arranged at right angles).
(§5) The values of the relative tumour volume (RTV) were calculated for each individual tumour by dividing the tumour size on day X with the tumour size on day 0 (at the time of randomization). The average values of the RTV were then used for the further assessment.
(§6) The inhibition of the increase of the tumour volume (tumour volume of the test group/control group, T/C, in per cent) was the final measured value.
(§7) The compounds can be administered with a daily or an intermittent therapy schedule through a couple of days either by intraperitoneal, intravenious, oral or subcutaneous route.
(§8) The compounds are dissolved in PEG400/water 2:1 and administered intravenously or intraperitoneally from day 1-3 and day 15-17.

Series [4] relates to melanoma xenograft model (MEXF 989). Described as above. Further details: species or system athymic nude mice (NMRI nu/nu strain).
Source text: as §2, §3, §4, §5, §6, §7, §8

Series [5] has as its target T1, αvβ3 receptor (Homo sapiens, UniProt P05106+P06756).
T1 construct: αvβ3 from human A375 cells was purified; endogenous in cells; host or cells: human A375 cells (receptor purified from the cells, analogous to Wong et al. 1996)
Put plainly: αvβ3 binding test (echistatin displacement, WGA SPA beads). To be noted: αvβ3 from human A375 cells; for IC50: read-out: IC50 values of the binding to the αvβ3 receptor. Here is the method:
αvβ3 from human A375 cells was purified analogously to a procedure which was described by Wong et al. (Molecular Pharmacology, 50, 529-537 (1996)). In each case, 10 μl of αvβ3 (5 ng) in TBS pH 7.6, 2 mM CaCl2, 1 mM MgCl2, 1% n-octylglucopyranoside (Sigma); 10 μl of test substance in TBS pH 7.6, 0.1% DMSO and 45 μl of TBS pH 7.6, 2 mM CaCl2, 1 mM MgCl2, 1 mM MnCl2 were incubated at room temperature for 1 h. In each case, 25 μl of WGA SPA beads (Amersham, 4 mg/ml) and 10 μl of echistatin (0.1 μCi, Amersham, chloramine-T labelled) were then added. After 16 hours at room temperature, the samples were measured in a scintillation measuring apparatus (Wallac 1450).

Series [6] concerns B16F10. Put plainly: Growth inhibition test (MTT), cytotoxic action on tumour cell lines. It counts as cell-based, mouse. The method in brief: as §1
Series [7] addresses T2, MMP-2 (Homo sapiens, UniProt P08253).
T2 construct: purchased Calbiochem
T2 sequence (P08253 110-660): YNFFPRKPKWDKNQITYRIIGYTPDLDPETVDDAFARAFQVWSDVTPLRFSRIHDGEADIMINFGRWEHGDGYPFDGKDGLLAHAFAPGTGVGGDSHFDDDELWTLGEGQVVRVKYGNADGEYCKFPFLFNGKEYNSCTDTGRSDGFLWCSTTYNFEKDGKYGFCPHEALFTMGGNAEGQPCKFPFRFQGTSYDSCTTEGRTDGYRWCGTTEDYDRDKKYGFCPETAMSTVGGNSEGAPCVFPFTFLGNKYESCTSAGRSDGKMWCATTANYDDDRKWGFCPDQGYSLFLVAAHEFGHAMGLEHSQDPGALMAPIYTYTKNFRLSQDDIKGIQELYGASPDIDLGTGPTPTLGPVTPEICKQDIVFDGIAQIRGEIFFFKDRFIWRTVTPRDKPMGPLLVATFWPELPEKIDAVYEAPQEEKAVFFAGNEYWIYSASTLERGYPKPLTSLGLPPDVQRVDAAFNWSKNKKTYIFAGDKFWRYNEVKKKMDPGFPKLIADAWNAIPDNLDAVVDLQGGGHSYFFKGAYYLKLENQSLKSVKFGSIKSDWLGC
Put plainly: Cleavage of conjugates by MMP-2 in buffer (HPLC). To be noted: after 6 h incubation with MMP-2; buffer pH 7.5. Format: biochemical. Here is the method:
2.5 μl MMP-2 (Calbiochem) with a specific activity of 60 μU/μl are incubated with 10 nM of the conjugates exemplified in the example series 1-25 in 1 ml of a medium consisting of 50 mM Tris-HCl pH 7.5, 0.2 M NaCl, 10 mM CaCL2*2H2O and 0.05% Brij 35. The enzyme mediated cleavage of the conjugates is detected by HPLC analysis using an RP18 (5 μM) column with 70% HClO4/water (0.4% v/v) as eluent A and acentonitrile as eluent B (UV detection at […]). The efficiency of the cleavage is assessed by comparing the peak areas of the intact conjugate (starting material) and the cleavage product (tripeptide conjugate of camptothecin) after 6 h and 24 h incubation (cf. Table 5).

For series [8], the system named is hemopoietic stem cells. Put plainly: CSF-induced proliferation of hemopoietic stem cells (colony formation). It counts as cell-based, mice. The conditions noted are these: murine bone marrow cells, GM-CSF, 7 days. Here is the method: Bone marrow cells are flushed out of the femur of mice. 10^5 cells are incubated in McCoy 5A medium (0.3% agar) together with recombinant murine GM-CSF (Genzyme; parent cell colony formation) and the substances (10^−4 to 100 μg/ml) at 37° C. and 7% CO2. 7 days later, the colonies […] and clusters (17-50 cells) are counted.

Values after ≈ are worked out from the molar mass of the structure shown. Like-named read-outs stand apart in the source and are kept apart here. *1 amine or outer side, *2 acyl side, *3 side chain or, on linkers, in order; H or OH if unused. Where a SMILES comes first, the peptide text is derived from it. [ ]: non-standard residue; d: D form. The star is where a group is joined. Camptothecin(20R,20-O) = CC[C@]1(O*)C(=O)OCc2c1cc1n(c2=O)Cc2cc3ccccc3nc2-1; X1 = CCCNC(=O)Nc1cccc(S(=O)(=O)Nc2cccc(C(CC(=O)O)N*)c2)c1; NH(1,4-C6H4)NHCS = S=C(Nc1ccc(N[*:1])cc1)[*:2]; CO = O=C([*:1])[*:2]; GABA = NCCCC(=O)O

T1 sequence (P06756 31-889 limits assumed): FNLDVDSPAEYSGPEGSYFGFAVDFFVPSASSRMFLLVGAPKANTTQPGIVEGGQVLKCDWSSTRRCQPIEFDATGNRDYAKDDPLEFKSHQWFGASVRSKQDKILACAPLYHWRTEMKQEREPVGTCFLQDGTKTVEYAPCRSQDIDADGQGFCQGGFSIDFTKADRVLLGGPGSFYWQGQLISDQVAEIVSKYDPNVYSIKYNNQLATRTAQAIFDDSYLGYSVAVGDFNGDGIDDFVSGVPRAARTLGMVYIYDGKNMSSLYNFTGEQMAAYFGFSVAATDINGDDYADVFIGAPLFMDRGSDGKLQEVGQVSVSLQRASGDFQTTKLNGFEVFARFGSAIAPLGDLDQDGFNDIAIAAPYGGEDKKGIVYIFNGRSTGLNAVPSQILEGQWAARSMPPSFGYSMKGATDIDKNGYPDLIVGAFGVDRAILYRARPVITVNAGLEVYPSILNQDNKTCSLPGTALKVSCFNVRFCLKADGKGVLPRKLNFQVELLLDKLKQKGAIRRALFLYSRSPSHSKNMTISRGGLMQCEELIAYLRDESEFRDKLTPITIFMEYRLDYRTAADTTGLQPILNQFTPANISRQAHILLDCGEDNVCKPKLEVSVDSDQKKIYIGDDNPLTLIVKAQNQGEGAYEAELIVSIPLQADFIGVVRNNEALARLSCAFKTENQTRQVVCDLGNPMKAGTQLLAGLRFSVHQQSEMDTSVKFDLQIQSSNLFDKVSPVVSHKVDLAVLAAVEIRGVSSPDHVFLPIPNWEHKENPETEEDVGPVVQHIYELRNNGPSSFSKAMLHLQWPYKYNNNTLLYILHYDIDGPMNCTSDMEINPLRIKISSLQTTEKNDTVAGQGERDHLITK
T1 sequence (P06756 891-1048 partner limits assumed): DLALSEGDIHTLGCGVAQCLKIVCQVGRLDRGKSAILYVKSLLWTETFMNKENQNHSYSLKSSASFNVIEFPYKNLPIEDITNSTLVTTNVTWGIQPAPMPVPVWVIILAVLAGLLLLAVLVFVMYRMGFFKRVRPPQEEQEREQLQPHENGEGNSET
T1 sequence (P05106 27-788): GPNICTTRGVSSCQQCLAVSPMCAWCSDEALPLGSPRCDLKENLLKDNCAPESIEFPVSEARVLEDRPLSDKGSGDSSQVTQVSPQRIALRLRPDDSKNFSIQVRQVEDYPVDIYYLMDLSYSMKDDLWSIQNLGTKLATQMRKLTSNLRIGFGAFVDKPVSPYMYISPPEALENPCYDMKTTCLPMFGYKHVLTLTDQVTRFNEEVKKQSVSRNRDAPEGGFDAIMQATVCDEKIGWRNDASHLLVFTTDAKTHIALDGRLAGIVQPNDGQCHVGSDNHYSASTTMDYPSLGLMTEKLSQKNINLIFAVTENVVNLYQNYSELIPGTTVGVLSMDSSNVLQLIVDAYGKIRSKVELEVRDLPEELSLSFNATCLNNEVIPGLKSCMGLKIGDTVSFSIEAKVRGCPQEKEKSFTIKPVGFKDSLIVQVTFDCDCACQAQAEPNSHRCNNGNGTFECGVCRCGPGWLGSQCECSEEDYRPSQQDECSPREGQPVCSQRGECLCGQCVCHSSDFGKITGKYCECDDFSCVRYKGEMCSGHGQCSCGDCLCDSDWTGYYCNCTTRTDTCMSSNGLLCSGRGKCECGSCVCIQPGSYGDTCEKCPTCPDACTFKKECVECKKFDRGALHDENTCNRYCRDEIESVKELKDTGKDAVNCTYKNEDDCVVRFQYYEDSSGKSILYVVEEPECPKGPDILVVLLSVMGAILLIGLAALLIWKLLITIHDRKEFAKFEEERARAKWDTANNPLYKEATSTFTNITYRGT

Broadly, the IC50 is the concentration that inhibits the measured activity by half. Consider `CCCNC(=O)Nc1cccc(S(=O)(=O)Nc2cccc(C(CC(=O)O)NC(=O)Nc3ccc(NC(=S)N4CCC[C@@H]4C(=O)N[C@@H](CC(C)C)C(=O)NCC(=O)N[C@H](CC(C)C)C(=O)N[C@H](CC(N)=O)C(=O)N[C@@H](C(=O)O[C@@]4(CC)C(=O)OCc5c4cc4n(c5=O)Cc5cc6ccccc6nc5-4)C(C)C)cc3)c2)c1` (single isomer, unassigned) [Example 10], for which the IC50 in series [1] (human, 6 days) turned out to be 70 nM; in series [2] (human, 6 days), 100 nM; in series [5] it was 20 nM; in series [6] (mouse, 6 days) it was 600 nM. For the same compound, the MTD in series [3] stood at 6 mg/kg/day. Also, the “optimal T/C in %” value in series [4] (6 mg/kg/day, intravenously or intraperitoneally day 1-3 and day 15-17, MEXF 989) stood at 11.4%. The lethality in series [4] (6 mg/kg/day, intravenously or intraperitoneally day 1-3 and day 15-17, MEXF 989 nude mice) is 0/5 (MTD). In addition, in series [4] (subcutaneously growing melanoma xenograft MEXF 989), the “inhibition of the tumor growth (in words)” value is recorded as “effected inhibitions of the tumor growth”. Also, in series [7], the “MMP-2 mediated cleavage Peak area product/educt x100” value is recorded as 16.
Regarding `CC[C@@]1(O)C(=O)OCc2c1cc1n(c2=O)Cc2cc3ccccc3nc2-1` [Camptothecin, 20(S)-Camptothecin, reference compound], the IC50 in series [8] (Mus musculus, Bone marrow cell, 168 h, read-out: IC50 values of the inhibition of colony formation of hemopoietic stem cells) stood at 0.25 ng/mL (≈ 0.718 nM).
Take `CCCNC(=O)Nc1cccc(S(=O)(=O)Nc2cccc(C(CC(=O)O)NC(=O)Nc3ccc(NC(=S)N4CCC[C@@H]4C(=O)N[C@@H](CC(C)C)C(=O)NCC(=O)N[C@H](CC(C)C)C(=O)N[C@H](Cc4c[nH]cn4)C(=O)N[C@@H](C(=O)O[C@@]4(CC)C(=O)OCc5c4cc4n(c5=O)Cc5cc6ccccc6nc5-4)C(C)C)cc3)c2)c1` (stereo partly drawn) [Example 1]: the “IC50 values of the inhibition of colony formation of hemopoietic stem cells” value in series [8] amounted to 30 ng/mL. The half-inhibitory concentration (IC50) is 70 nM in series [1] (human, 6 days); 50 nM in series [2] (human, 6 days); 40 nM in series [5]; 250 nM in series [6] (mouse, 6 days). Moreover, the “MMP-2 mediated cleavage Peak area product/educt x100” value in series [7] amounted to 17.
Regarding `CCCNC(=O)Nc1cccc(S(=O)(=O)Nc2cccc(C(CC(=O)O)NC(=O)Nc3ccc(NC(=S)NCCCC(=O)N4CCC[C@@H]4C(=O)N[C@@H](CC(C)C)C(=O)NCC(=O)N[C@H](CC(C)C)C(=O)N[C@H](Cc4c[nH]cn4)C(=O)N[C@@H](C(=O)O[C@@]4(CC)C(=O)OCc5c4cc4n(c5=O)Cc5cc6ccccc6nc5-4)C(C)C)cc3)c2)c1` (stereo partly drawn) [Example 16] ({X1-CO}-[NH(1,4-C6H4)NHCS][GABA][dP]LG[dL][dH][dV]-{Camptothecin(20R,20-O)}), in series [8], the “IC50 values of the inhibition of colony formation of hemopoietic stem cells” value came to 15 ng/mL. In addition, the IC50 in series [1] (SW480, MTT after day 6, read-out: IC50 values of the cytotoxic action on tumour cell lines, SW480) turned out to be 40 nM; in series [2] (HT29, MTT after day 6, read-out: IC50 values of the cytotoxic action on tumour cell lines, HT29), 25 nM; in series [6] (B16F10, MTT after day 6, read-out: IC50 values of the cytotoxic action on tumour cell lines, B16F10) it was 50 nM. Further, the “IC50 values of the binding to the αvβ3 receptor” value in series [5] is listed as “nix”.
